Results on 31 molecules are retold here after patent publication US7314958B2, “Phenylbenzamides” (Bayer CropScience AG, priority 2002, dated 2008).

The nature of series [1]: logP determination by HPLC, reversed-phase column (C 18), acidic range. Format: physicochemical. The note with it: pH 2.3, 0.1% aqueous phosphoric acid/acetonitrile, 43° C. The procedure: The logP values given in the Preparation Examples were determined in accordance with EEC Directive 79/831 Annex V.A8 by HPLC (High Performance Liquid Chromatography) using a reversed-phase column (C 18). Temperature: 43° C. Mobile phases for the determination in the acidic range: 0.1% aqueous phosphoric acid, acetonitrile; linear gradient from 10% acetonitrile to 90% acetonitrile. Calibration was carried out using unbranched alkan-2-ones (having 3 to 16 carbon atoms) with known logP values (determination of the logP values by the retention times using linear interpolation between two successive […]).

A further series concerns Puccinia recondita. Nature of the series: Puccinia test (wheat)/protective. It counts as in vivo. The note with it: 240 h, protective, application rate 500 g/ha, evaluation 10 days after inoculation, read-out: Efficacy in %. How it is done: Puccinia Test (Wheat)/Protective • Solvent: 25 parts by weight of N,N-dimethylacetamide • Emulsifier: 0.6 part by weight of alkylaryl polyglycol ether To produce a suitable preparation of active compound, 1 part by weight of active compound is mixed with the stated amounts of solvent and emulsifier, and the concentrate is diluted with water to the desired concentration. To test for protective activity, young plants are inoculated with a spore suspension of Puccinia recondita in a 0.1% strength aqueous agar solution. After the spray coating has dried on, the plants are sprayed with the preparation of active compound at the stated application rate. The plants remain in an incubation cabin at 20° C. and 100% relative atmospheric humidity for 24 hours. The plants are then placed in a greenhouse at a temperature of about 20° C. and a relative atmospheric humidity of 80% to promote the development of rust pustules. Evaluation is carried out 10 days after the inoculation. 0% means an efficacy which corresponds to that of the control, whereas an efficacy of 100% means that no infection is observed.

Series [2] deals with Sphaerotheca fuliginea. As to the kind of experiment: Sphaerotheca test (cucumber)/protective. Format: in vivo. The conditions noted are these: protective, application rate 100 g/ha, evaluation 7 days after inoculation.
In series [3] the test system is Sphaerotheca fuliginea. As to the kind of experiment: Sphaerotheca test (cucumber)/protective. The conditions noted are these: Podosphaera fuliginea, 168 h; comparative experiment; application rate 500 ppm; read-out: Example A Spaerotheca test (cucumber) protective efficacy in %. It counts as in vivo. The procedure:
Sphaerotheca Test (Cucumber)/Protective
• Solvents: 24.5 parts by weight of acetone 24.5 parts by weight of dimethylacetamide • Emulsifier: 1 part by weight of alkylaryl polyglycol ether
(§1) To produce a suitable preparation of active compound, 1 part by weight of active compound is mixed with the stated amounts of solvent and emulsifier, and the concentrate is diluted with water to the desired concentration.
To test for protective activity, young plants are sprayed with the preparation of active compound at the stated application rate. After the spray coating has dried on, the plants are inoculated with an aqueous spore suspension of Sphaerotheca fuliginea. The plants are then placed in a greenhouse at about 23° C. and a relative atmospheric humidity of about 70%.
Evaluation is carried out 7 days after the inoculation. 0% means an efficacy which corresponds to that of the control, whereas an efficacy of 100% means that no infection is observed.
The compounds were tested in comparative experiments according to use examples A [Spaerotheca test (cucumber)/protective], D [Alternaria test (tomato)/protective] and E [Erysiphe test (barley)/protective].
In each case, the application rate was 500 ppm.

For the next series, the system named is Alternaria solani. As to the kind of experiment: Alternaria test (tomato)/protective. It counts as in vivo. The conditions noted are these: 168 h, comparative experiment, application rate 500 ppm, read-out: Example D Alternaria test (tomato) protective efficacy in %. How it is done: Alternaria Test (Tomato)/Protective • Solvent: 49 parts by weight of N,N-dimethylformamide • Emulsifier: 1 part by weight of alkylaryl polyglycol ether To produce a suitable preparation of active compound, 1 part by weight of active compound is mixed with the stated amounts of solvent and emulsifier, and the concentrate is diluted with water to the desired concentration. To test for protective activity, young tomato plants are sprayed with the preparation of active compound at the stated application rate. 1 day after the treatment, the plants are inoculated with an aqueous spore suspension of Alternaria solani and then remain at 100% relative atmospheric humidity for 24 hours. The plants are then kept at about 96% relative atmospheric humidity and a temperature of 20° C. Evaluation is carried out 7 days after the inoculation. 0% means an efficacy which corresponds to that of the control, whereas an efficacy of 100% means that no infection is observed. The compounds were tested in comparative experiments according to use examples A [Spaerotheca test (cucumber)/protective], D [Alternaria test (tomato)/protective] and E [Erysiphe test (barley)/protective]. In each case, the application rate was 500 ppm.

In series [4] the test system is Erysiphe graminis f. sp. hordei. Nature of the series: Erysiphe test (barley)/protective. It counts as in vivo. The note with it: Blumeria graminis, 168 h; comparative experiment; application rate 500 ppm; read-out: Example E Erysiphe test (barley) protective efficacy in %. The procedure:
Erysiphe Test (Barley)/Protective • Solvent: 49 parts by weight of N,N-dimethylformamide • Emulsifier: 1 part by weight of alkylaryl polyglycol ether To produce a suitable preparation of active compound, 1 part by weight of active compound is mixed with the stated amounts of solvent and emulsifier, and the concentrate is diluted with water to the desired concentration. To test for protective activity, young cereal plants are sprayed with the preparation of active compound at the stated application rate. 1 day after the treatment, the plants are inoculated with spores of Erysiphe graminis f. sp. hordei. The plants are then placed in a greenhouse at 70% relative atmospheric humidity and a temperature of 18° C. Evaluation is carried out 7 days after the inoculation. 0% means an efficacy which corresponds to that of the control, whereas an efficacy of 100% means that no infection is observed. The compounds were tested in comparative experiments according to use examples A [Spaerotheca test (cucumber)/protective], D [Alternaria test (tomato)/protective] and E [Erysiphe test (barley)/protective]. In each case, the application rate was 500 ppm.

For the next series, the system named is Venturia inaequalis. Nature of the series: Venturia test (apple)/protective. Format: in vivo. The conditions noted are these: protective, application rate 100 g/ha, evaluation 10 days after inoculation. The procedure:
Venturia Test (Apple)/Protective
• Solvents: 24.5 parts by weight of acetone 24.5 parts by weight of dimethylacetamide • Emulsifier: 1.0 part by weight of alkylaryl polyglycol ether
as §1
To test for protective activity, young plants are sprayed with the preparation of active compound at the stated application rate. After the spray coating has dried on, the plants are inoculated with an aqueous conidia suspension of the apple scab pathogen Venturia inaequalis and then remain in an incubation cabin at about 20° C. and 100% relative atmospheric humidity for 1 day.
The plants are then placed in a greenhouse at about 21° C. and a relative atmospheric humidity of about 90%.
Evaluation is carried out 10 days after the inoculation. 0% means an efficacy which corresponds to that of the control, whilst an efficacy of 100% means that no infection is observed.

The chromatographic logP is lipophilicity estimated from chromatographic retention. Lower therefore signals a more hydrophilic compound.

With `CC(CC(C)(C)C)c1ccccc1NC(=O)c1ccccc1Cl` (stereo not shown) [Example 7, 2-chloro-N-[2-(1,3,3-trimethylbutyl)phenyl]benzamide], the chromatographic logP in series [1] turned out to be 4.25.

`CC(C)CC(C)c1ccccc1NC(=O)c1ccccc1Cl` (stereo not shown) [drawing 23]: the pest or weed control at 500 g/ha in the series with Puccinia recondita amounted to 100%.

As for `CCC(C)(C)CC(C)c1ccccc1NC(=O)c1ccccc1I` (stereo not shown) [Example 10, (2-iodophenyl)-N-[2-(1,3,3-trimethylpentyl)phenyl]carboxamide], the chromatographic logP in series [1] was 4.71.

For the molecule `CC(C)CC(C)c1ccccc1NC(=O)c1ccccc1I` (stereo not shown) [drawing 11], in the series with Sphaerotheca fuliginea [2], the Efficacy in % is 100%.

For the molecule `CCCCc1ccccc1NC(=O)c1ccccc1I` [No.14.3(p. 42)], the pest or weed control at 500 ppm (in the series with Sphaerotheca fuliginea [3]; in the series with Alternaria solani; in series [4]) was 0% throughout.

As for `CC(C)CC(C)c1ccccc1NC(=O)c1ccccc1I` (stereo not shown) [drawing 13], the Efficacy in % in the series with Venturia inaequalis worked out at 100%.

As to `CCC(C)c1ccccc1NC(=O)c1ccccc1I` (stereo not shown) [No.14.4(p. 42)], the pest or weed control at 500 ppm turned out to be 10% in the series on Sphaerotheca fuliginea [3], 10% with Alternaria solani and 20% in series [4].

As for `CC(C)CC(C)c1ccccc1NC(=O)c1ccccc1I` (stereo not shown) [drawing 21], the pest or weed control at 500 g/ha in the series on Puccinia recondita amounted to 100%.

In series [1], `CC(CC(C)(C)C)c1ccccc1NC(=O)c1ccccc1C(F)(F)F` (stereo not shown) [Example 6, 2-(trifluoromethyl)-N-[2-(1,3,3-trimethylbutyl)phenyl]benzamide] registered a chromatographic logP of 4.36.

Consider `CC(C)CC(C)c1ccccc1NC(=O)c1ccccc1I` (stereo not shown) [Example 3, N-[2-(1,3-dimethylbutyl)phenyl]-2-iodobenzamide], for which the pest or weed control at 500 ppm with Sphaerotheca fuliginea [3] is 100%; in the series on Alternaria solani, 95%; in series [4] it was 95%. The molecule further returned a chromatographic logP in series [1] of 4.12.

In turn, `CCC(C)(C)CC(C)c1ccccc1NC(=O)c1ccccc1Br` (stereo not shown) [Example 13, (2-bromophenyl)-N-[2-(1,3,3-trimethylpentyl)phenyl]carboxamide] registered a chromatographic logP in series [1] of 4.63.

For `CC(C)CC(C)c1ccccc1NC(=O)c1ccccc1Br` (stereo not shown) [Example 5, N-[2-(1,3-dimethylbutyl)phenyl]-2-bromobenzamide], the pest or weed control at 500 ppm was 95% with Sphaerotheca fuliginea [3], 90% in the series with Alternaria solani and 30% in series [4]. Also, the chromatographic logP in series [1] was 4.01.

On to `CC(C)CC(C)c1ccccc1NC(=O)c1ccccc1C(F)(F)F` (stereo not shown) [drawing 12], for which, in the series on Venturia inaequalis, the Efficacy in % was determined as 100%.

Take `CC(C)CC(C)c1ccccc1NC(=O)c1ccccc1Br` (stereo not shown) [drawing 22]: the pest or weed control at 500 g/ha with Puccinia recondita worked out at 100%.

For `CCCCCCc1ccccc1NC(=O)c1ccccc1I` [No.14.9(p. 42)], the pest or weed control at 500 ppm (in the series on Sphaerotheca fuliginea [3]; with Alternaria solani; in series [4]) was 0% each time.

As for `CCC(C)(C)CC(C)c1ccccc1NC(=O)c1ccccc1Cl` (stereo not shown) [Example 12, (2-chlorophenyl)-N-[2-(1,3,3-trimethylpentyl)phenyl]carboxamide], the chromatographic logP in series [1] was found to be 4.6.

In the case of `CC(C)CC(C)c1ccccc1NC(=O)c1ccccc1C(F)(F)F` (stereo not shown) [Example 2, N-[2-(1,3-dimethylbutyl)phenyl]-2-(trifluoromethyl)benzamide], the pest or weed control at 500 ppm in the series with Sphaerotheca fuliginea [3] was 100%; with Alternaria solani, 95%; in series [4], 90%. Further, the chromatographic logP in series [1] worked out at 4.09.

On to `CCCCc1ccccc1NC(=O)c1ccccc1C(F)(F)F` [No. 6.3(p. 24)], for which the pest or weed control at 500 ppm in the series with Sphaerotheca fuliginea [3] was 10%; in the series on Alternaria solani, 0%; in series [4], 10%.

For `CC(CC(C)(C)C)c1ccccc1NC(=O)c1ccccc1I` (stereo not shown) [drawing 28], in the series with Puccinia recondita, the pest or weed control at 500 g/ha was 100%.

For the molecule `CCC(C)c1ccccc1NC(=O)c1ccccc1C(F)(F)F` (stereo not shown) [No. 6.4(p. 24)], the pest or weed control at 500 ppm was 30% with Sphaerotheca fuliginea [3], 30% in the series on Alternaria solani and 0% in series [4].

Regarding `CC(CC(C)(C)C)c1ccccc1NC(=O)c1ccccc1C(F)(F)F` (stereo not shown) [drawing 27], the pest or weed control at 500 g/ha in the series on Puccinia recondita came out at 100%.

In turn, `CCC(C)(C)CC(C)c1ccccc1NC(=O)c1ccccc1C(F)(F)F` (stereo not shown) [Example 11, [2-(trifluoromethyl)phenyl]-N-[2-(1,3,3-trimethylpentyl)phenyl]carboxamide] showed a chromatographic logP in series [1] of 4.68.

As for `CC(CC(C)(C)C)c1ccccc1NC(=O)c1ccccc1Br` (stereo not shown) [drawing 24], in the series with Puccinia recondita, the pest or weed control at 500 g/ha is 100%.

Turning to `CC(CC(C)(C)C)c1ccccc1NC(=O)c1ccccc1I` (stereo not shown) [Example 9, 2-iodo-N-[2-(1,3,3-trimethylbutyl)phenyl]benzamide], in series [1], the chromatographic logP came out at 4.4.

In series [1], `CC(CC(C)(C)C)c1ccccc1NC(=O)c1ccccc1Br` (stereo not shown) [Example 8, 2-bromo-N-[2-(1,3,3-trimethylbutyl)phenyl]benzamide] registered a chromatographic logP of 4.29.

Molecule `CC(C)CC(C)c1ccccc1NC(=O)c1ccccc1Cl` (stereo not shown) [Example 4, N-[2-(1,3-dimethylbutyl)phenyl]-2-chlorobenzamide] had a chromatographic logP in series [1] of 3.98.

As to `CC(C)CC(C)c1ccccc1NC(=O)c1ccccc1C(F)(F)F` (stereo not shown) [drawing 20], the pest or weed control at 500 g/ha in the series with Puccinia recondita is 100%.

For the molecule `CCCCCCc1ccccc1NC(=O)c1ccccc1C(F)(F)F` [No. 6.9(p. 24)], the pest or weed control at 500 ppm (in the series on Sphaerotheca fuliginea [3]; in the series on Alternaria solani; in series [4]) was 0% throughout.

`CC(C)CC(C)c1ccccc1NC(=O)c1ccccc1C(F)(F)F` (stereo not shown) [drawing 10]: the Efficacy in % with Sphaerotheca fuliginea [2] is given as 100%.

Take `CC(CC(C)(C)C)c1ccccc1NC(=O)c1ccccc1Cl` (stereo not shown) [drawing 25]: the pest or weed control at 500 g/ha in the series with Puccinia recondita was determined as 100%.

As for `CCC(C)(C)CC(C)c1ccccc1NC(=O)c1ccccc1C(F)(F)F` (stereo not shown) [drawing 26], in the series with Puccinia recondita, the pest or weed control at 500 g/ha turned out to be 100%.
